Measured values from ChEMBL document CHEMBL1148786, “L-(+)-2-Amino-4-thiophosphonobutyric acid (L-thioAP4), a new potent agonist of group III metabotropic glutamate receptors: increased distal acidity affords enhanced potency” (J Med Chem, 2007).
Calls of active or inactive are those of the source. No cut-off for these calls is given here.

Columns and labels:
[1] = molecular target: Metabotropic glutamate receptor 4 (Rattus norvegicus, UniProt P31423); assay: Agonist activity at rat mGluR4 receptor expressed HEK293 cells assessed as effect on inositol phosphate production; format: functional, cell-based
Metabotropic glutamate receptor 4, sequence (P31423 whole entry): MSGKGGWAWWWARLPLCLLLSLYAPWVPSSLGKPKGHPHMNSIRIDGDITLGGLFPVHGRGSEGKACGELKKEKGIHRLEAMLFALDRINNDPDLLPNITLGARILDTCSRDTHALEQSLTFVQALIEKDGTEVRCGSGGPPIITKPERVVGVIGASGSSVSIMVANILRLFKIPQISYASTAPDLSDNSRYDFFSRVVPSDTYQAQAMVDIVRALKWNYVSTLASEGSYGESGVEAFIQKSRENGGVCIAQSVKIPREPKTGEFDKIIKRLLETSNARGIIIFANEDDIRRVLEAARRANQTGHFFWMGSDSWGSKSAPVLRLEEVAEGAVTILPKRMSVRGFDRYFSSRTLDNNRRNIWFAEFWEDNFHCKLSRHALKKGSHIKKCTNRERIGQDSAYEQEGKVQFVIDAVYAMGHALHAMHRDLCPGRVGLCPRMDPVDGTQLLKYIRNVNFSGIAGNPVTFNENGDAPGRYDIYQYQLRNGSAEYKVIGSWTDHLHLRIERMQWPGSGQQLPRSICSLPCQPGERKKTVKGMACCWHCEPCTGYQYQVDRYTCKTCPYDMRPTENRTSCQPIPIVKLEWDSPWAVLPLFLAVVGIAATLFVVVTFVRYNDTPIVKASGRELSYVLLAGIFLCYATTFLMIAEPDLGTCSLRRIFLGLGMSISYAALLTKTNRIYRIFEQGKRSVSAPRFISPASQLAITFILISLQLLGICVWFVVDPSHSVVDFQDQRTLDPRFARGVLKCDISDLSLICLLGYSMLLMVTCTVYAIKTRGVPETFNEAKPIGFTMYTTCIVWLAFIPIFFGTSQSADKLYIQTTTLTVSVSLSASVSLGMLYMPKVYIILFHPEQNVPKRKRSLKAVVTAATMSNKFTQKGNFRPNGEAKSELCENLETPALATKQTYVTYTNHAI

[2] = molecular target: Metabotropic glutamate receptor 6 (Rattus norvegicus, UniProt P35349); assay: Agonist activity at rat mGluR6 receptor expressed HEK293 cells assessed as effect on inositol phosphate production; format: functional, cell-based
[3] = molecular target: Metabotropic glutamate receptor 7 (Rattus norvegicus, UniProt P35400); assay: Agonist activity at rat mGluR7 receptor expressed HEK293 cells assessed as effect on inositol phosphate production; format: functional, cell-based
[4] = molecular target: Metabotropic glutamate receptor 8 (Rattus norvegicus, UniProt P70579); assay: Agonist activity at rat mGluR8 receptor expressed HEK293 cells assessed as effect on inositol phosphate production; format: functional, cell-based
[5] = molecular target: Metabotropic glutamate receptor 1 (Homo sapiens) (UniProt Q13255); assay: Activity at mGluR1 receptor at 100 uM
Metabotropic glutamate receptor 1 (Homo sapiens), sequence (Q13255 19-1194 limits assumed): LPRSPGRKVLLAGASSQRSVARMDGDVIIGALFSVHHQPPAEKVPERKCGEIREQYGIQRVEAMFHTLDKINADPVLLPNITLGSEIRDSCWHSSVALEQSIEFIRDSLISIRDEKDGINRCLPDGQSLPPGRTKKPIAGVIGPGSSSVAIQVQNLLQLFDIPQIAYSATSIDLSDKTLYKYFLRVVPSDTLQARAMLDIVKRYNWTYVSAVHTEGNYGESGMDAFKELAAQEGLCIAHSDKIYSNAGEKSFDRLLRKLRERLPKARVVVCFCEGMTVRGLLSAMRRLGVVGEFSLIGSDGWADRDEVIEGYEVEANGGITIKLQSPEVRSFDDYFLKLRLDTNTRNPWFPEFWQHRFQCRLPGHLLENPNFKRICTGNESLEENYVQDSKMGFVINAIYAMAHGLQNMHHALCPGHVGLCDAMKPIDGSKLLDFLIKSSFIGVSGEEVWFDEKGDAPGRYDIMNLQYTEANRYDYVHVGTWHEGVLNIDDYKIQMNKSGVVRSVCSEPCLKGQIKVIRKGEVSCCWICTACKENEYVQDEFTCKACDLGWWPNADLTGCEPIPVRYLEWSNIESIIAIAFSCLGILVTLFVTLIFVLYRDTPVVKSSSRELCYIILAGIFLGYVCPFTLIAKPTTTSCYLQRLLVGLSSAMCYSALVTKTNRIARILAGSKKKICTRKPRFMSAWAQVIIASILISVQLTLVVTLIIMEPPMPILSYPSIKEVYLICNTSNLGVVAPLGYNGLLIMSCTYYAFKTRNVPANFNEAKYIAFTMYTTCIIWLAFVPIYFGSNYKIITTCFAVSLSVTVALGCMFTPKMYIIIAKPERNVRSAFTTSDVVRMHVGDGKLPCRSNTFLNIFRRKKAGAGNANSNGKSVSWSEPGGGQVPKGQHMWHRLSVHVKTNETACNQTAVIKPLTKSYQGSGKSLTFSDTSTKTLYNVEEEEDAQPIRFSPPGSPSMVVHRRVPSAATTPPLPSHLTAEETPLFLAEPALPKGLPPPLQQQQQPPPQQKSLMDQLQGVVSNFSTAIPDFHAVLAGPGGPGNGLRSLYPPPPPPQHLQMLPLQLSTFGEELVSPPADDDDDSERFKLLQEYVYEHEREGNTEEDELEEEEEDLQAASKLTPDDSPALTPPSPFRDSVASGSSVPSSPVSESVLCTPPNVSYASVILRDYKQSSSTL

[6] = molecular target: Metabotropic glutamate receptor 5 (Homo sapiens) (UniProt P41594); assay: Activity at mGluR5 receptor at 100 uM
Metabotropic glutamate receptor 5 (Homo sapiens), sequence (P41594 21-1212 limits assumed): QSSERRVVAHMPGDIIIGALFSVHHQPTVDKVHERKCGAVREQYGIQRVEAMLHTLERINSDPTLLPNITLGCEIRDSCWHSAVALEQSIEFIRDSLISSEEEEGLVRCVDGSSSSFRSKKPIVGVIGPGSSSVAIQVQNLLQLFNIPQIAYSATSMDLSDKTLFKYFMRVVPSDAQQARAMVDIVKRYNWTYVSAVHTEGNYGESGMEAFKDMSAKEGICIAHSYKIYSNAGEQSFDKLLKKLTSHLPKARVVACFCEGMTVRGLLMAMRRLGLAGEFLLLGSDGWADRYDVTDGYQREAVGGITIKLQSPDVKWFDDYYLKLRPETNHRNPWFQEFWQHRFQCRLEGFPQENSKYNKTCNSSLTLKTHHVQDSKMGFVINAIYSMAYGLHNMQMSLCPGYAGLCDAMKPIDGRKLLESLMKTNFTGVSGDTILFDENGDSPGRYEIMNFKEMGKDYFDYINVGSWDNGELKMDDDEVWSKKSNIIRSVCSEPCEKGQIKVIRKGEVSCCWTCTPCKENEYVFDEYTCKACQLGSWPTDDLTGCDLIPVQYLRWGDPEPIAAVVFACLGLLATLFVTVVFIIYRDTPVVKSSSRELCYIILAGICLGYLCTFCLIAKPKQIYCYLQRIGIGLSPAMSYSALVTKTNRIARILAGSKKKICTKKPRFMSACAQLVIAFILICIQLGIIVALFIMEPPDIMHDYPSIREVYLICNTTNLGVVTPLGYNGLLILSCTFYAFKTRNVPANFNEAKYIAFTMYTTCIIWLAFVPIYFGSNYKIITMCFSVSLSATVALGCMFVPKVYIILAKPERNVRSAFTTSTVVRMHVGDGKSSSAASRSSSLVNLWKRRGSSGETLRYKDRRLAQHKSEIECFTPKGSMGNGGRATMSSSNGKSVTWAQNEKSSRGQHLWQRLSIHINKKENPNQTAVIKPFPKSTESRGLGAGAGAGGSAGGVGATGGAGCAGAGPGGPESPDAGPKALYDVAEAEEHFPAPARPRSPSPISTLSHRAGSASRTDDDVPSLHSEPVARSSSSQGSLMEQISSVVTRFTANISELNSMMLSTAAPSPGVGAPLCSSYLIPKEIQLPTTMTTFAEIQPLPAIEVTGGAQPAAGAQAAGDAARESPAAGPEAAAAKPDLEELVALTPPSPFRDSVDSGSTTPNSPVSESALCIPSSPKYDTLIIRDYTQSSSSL

[7] = molecular target: Metabotropic glutamate receptor 2 (Homo sapiens) (UniProt Q14416); assay: Activity at mGluR2 receptor at 100 uM
Metabotropic glutamate receptor 2 (Homo sapiens), sequence (Q14416 19-872 limits assumed): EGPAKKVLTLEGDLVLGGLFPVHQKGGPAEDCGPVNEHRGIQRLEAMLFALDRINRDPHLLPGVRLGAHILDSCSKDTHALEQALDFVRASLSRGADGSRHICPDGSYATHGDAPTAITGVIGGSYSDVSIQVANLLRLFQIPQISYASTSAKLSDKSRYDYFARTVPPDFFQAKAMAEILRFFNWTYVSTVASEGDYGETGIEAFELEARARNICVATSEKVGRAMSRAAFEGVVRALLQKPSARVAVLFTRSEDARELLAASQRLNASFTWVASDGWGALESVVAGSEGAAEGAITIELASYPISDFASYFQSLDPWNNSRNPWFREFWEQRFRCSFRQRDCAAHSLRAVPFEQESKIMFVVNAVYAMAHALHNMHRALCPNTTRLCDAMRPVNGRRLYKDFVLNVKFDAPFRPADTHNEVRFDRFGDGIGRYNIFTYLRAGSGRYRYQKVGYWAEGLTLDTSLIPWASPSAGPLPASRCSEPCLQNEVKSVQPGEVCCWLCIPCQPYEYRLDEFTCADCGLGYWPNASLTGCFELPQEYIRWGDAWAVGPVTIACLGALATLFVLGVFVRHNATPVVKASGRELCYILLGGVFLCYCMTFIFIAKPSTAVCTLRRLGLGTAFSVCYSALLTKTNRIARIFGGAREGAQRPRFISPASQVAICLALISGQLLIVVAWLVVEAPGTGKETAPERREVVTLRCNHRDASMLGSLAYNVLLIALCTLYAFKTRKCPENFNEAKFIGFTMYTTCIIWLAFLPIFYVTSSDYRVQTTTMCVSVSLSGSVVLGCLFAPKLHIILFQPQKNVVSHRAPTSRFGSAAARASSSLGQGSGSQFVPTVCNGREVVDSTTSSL

[8] = molecular target: Metabotropic glutamate receptor 3 (Homo sapiens) (UniProt Q14832); assay: Activity at mGluR3 receptor at 100 uM
Metabotropic glutamate receptor 3 (Homo sapiens), sequence (Q14832 23-879 limits assumed): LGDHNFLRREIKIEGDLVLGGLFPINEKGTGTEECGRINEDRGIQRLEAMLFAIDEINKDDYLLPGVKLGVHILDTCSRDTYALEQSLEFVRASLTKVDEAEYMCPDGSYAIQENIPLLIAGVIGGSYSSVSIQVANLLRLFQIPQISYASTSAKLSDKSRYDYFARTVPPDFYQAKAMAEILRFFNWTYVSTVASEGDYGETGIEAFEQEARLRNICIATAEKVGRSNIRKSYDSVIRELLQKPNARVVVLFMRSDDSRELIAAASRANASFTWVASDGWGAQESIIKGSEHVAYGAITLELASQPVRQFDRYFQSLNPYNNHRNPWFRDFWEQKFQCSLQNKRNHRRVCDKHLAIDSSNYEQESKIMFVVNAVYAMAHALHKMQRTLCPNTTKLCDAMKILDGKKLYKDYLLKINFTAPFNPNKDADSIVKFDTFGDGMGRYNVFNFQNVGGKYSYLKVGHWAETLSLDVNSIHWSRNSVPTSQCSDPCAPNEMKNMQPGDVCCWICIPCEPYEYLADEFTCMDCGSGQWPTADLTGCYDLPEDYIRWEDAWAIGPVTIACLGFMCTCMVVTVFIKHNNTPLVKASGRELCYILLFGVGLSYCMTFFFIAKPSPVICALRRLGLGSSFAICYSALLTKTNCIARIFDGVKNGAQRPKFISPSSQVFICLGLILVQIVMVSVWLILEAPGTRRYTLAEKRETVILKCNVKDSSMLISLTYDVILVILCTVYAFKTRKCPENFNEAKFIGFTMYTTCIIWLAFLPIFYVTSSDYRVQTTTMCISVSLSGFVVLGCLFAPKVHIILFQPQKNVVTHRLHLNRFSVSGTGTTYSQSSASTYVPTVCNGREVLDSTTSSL

SMILES: CP(=O)(O)CC[C@H](N)C(=O)O [PHOSPHINOTHRICIN]
- EC50 [1]: 1100 µM
- EC50 [2]: > 500 µM
- EC50 [3]: > 500 µM
- EC50 [4]: 412 µM
- Activity [5]: inactive
- Activity [6]: inactive
- Activity [7]: inactive
- Activity [8]: inactive

SMILES: N[C@@H](CCP(O)(O)=S)C(=O)O
- Activity [5]: inactive
- Activity [6]: inactive
- Activity [7]: inactive
- Activity [8]: inactive

SMILES: N[C@@H](CC[PH](=O)O)C(=O)O
- EC50 [1]: 4.05 µM
- EC50 [2]: 27.8 µM
- EC50 [3]: > 500 µM
- EC50 [4]: 1.72 µM
- Activity [5]: inactive
- Activity [6]: inactive
- Activity [7]: inactive
- Activity [8]: inactive

SMILES: N[C@@H](CCP(=O)(O)O)C(=O)O
- Activity [5]: inactive
- Activity [6]: inactive
- Activity [7]: inactive
- Activity [8]: inactive
